Assay results published in US20180161376A1, “COMPOSITIONS AND METHODS FOR NEURONAL DIFFERENTIATION OF CELLS” (Northern Sydney Local Health District, priority 2014, published 2018).

Experiments:
Format in all cases: cell-based, human
[1] = test system: olfactory neurospheres (ONS); assay: Olfactory neurosphere (ONS) neuronal differentiation, immunostaining and morphology; settings: added to ONS differentiation media, 3-4 days
Procedure: Cells were fixed in 4% paraformaldehyde for 20 min and then blocked for 2 h at room temperature before incubated with the appropriate primary antibodies overnight at 4° C. The following primary antibodies were used: mouse β-III-tubulin (Sigma, 1:500), mouse N-cam (Dako, 1:100), mouse GFAP (Merk, 1:500), chicken Sox1 (Merk, 1:500), rabbit Nestin (Merk, 1:500), rabbit Neurofilament-Light (Merk, 1:500), rabbit Synapsin (Calbiochem, 1:500) and sheep Olfactory Marker Protein (Abcam, 1:500). Appropriate secondary antibodies were added and incubated for lh before samples were washed and mounted using Prolong Gold (Invitrogen) and analyzed using either a fluorescent microscope (Nikon) or a confocal microscope (Leica). All secondary antibodies were from Molecular Probes and diluted at 1:1000, except for anti-sheep secondary antibody, which was from Dako and diluted at 1:500.
Primary olfactory cells were dissociated into single cells and seeded onto Poly L-Lysine (Sigma) coated tissue culture dishes at 20,000 cells/cm^2 in sphering media, which consists of DMEM+1×ITS+50 μg/mL EGF+25 μg/mL FGF2. Cells were then incubated at 37° C. with 5% CO2 until neurospheres started to form. This normally takes 2-3 days. Small neurospheres (<200 μm in diameter) were manually picked under a dissecting microscope (Leica) and collected for differentiation. […]

[2] = test system: SMAD4; assay: RT-qPCR of SMAD4 mRNA in olfactory neurospheres treated with SB, LDN and TRIM; settings: ONS cells
Procedure: Primary olfactory cells were dissociated into single cells and seeded onto Poly L-Lysine (Sigma) coated tissue culture dishes at 20,000 cells/cm^2 in sphering media, which consists of DMEM+1×ITS+[…]. Cells were then incubated at 37° C. with 5% CO2 until neurospheres started to form. This normally takes 2-3 days. Small neurospheres (<200 μm in diameter) were manually picked under a dissecting microscope (Leica) and collected for differentiation.
For olfactory neurosphere differentiation experiments, cells were cultured in ONS differentiation media, which consists of neural basal media+1×B27+1×L-glutamine+pen/strep+1×β-mercaptoethanol+AA+BDNF supplemented with combinations of SB, LDN and TRIM. Cells were differentiated for 3-4 days before collected for analysis. Media was changed on the second day.
RT-qPCR was performed on cDNA samples with a Rotor-Gene 6000 (Corbett) using SYBER green based assays (Qiagen). All samples were normalized to GAPDH and the relative expression of each gene was determined using the delta-delta CT method. The primer sequences used are as follows:
The ability for ONS to respond to the treatments of SB, LDN and TRIM was tested. QPCR was performed according to the methods described in the foregoing examples.

[3] = test system: olfactory primary cells; assay: Olfactory primary cell culture differentiation, β-III-tubulin immunostaining; settings: 100 μM TRIM added, in all conditions, 4-7 days

| Structure (SMILES) | neurite morphology [1] | level of inhibition of SMAD4 ([2]; compared to cells cultured in the absence of inhibitors) [%] | mRNA level / expression of SMAD4 ([2]; compared to cells cultured without inhibitors) | β-III-tubulin positive cells on addition of NOS inhibitor [3] |
| --- | --- | --- | --- | --- |
| Cl.c1ccc2c(-c3cnn4cc(-c5ccc(N6CCNCC6)cc5)cnc34)ccnc2c1 [LDN193189, 4-(6-(4-(piperazin-1-yl)phenyl)pyrazolo[1,5-a]pyrimidin-3-yl)quinolone hydrochloride] | short neurites | 80 | – | – |
| NC(=O)c1ccc(-c2nc(-c3ccc4c(c3)OCO4)c(-c3ccccn3)[nH]2)cc1 [SB431542, 4-[4-(1,3-benzodioxol-5-yl)-5-(2-pyridinyl)-1H-imidazol-2-yl]benzamide] | short neurites | – | no change | – |
| FC(F)(F)c1ccccc1-n1ccnc1 [TRIM, 1-(2-Trifluoromethylphenyl) Imidazole] | – | – | – | further increase in β-III-tubulin positive cells |
